Measured values: ChEMBL document CHEMBL5550085, “A new small molecule DoNA binding to CAG repeat RNA” (Bioorg Med Chem, 2024)
pKd: −log10 of the molar value. The source made the active and inactive calls. No cut-off for these calls is given here.

Assays:
Type in all cases: nucleic-acid assay
RNA [1] = test: Binding affinity to (CAG)3 repeat RNA hairpin loop (unknown origin) by SPR analysis; details: dose 0.063-2 µM
RNA [2] = test: Binding affinity to (CAG)3 repeat RNA (unknown origin) at 0.063 to 2 uM by SPR analysis; details: dose 0.063-2 µM
RNA [3] = test: Binding affinity to 5' (CAG)2 repeat RNA overhang (unknown origin) by SPR analysis; details: dose 0.063-2 µM
RNA [4] = test: Binding affinity to (CAG)2 repeat RNA (unknown origin) at 0.063 to 2 uM by SPR analysis; details: dose 0.063-2 µM
RNA [5] = test: Binding affinity to (CAG)10 repeat RNA (unknown origin) assessed as association constant by SPR analysis
RNA [6] = test: Binding affinity to 5' (CAG)3 repeat RNA overhang (unknown origin) at 2 uM by SPR analysis
RNA [7] = test: Binding affinity to 3' (CAG) repeat RNA hairpin loop (unknown origin) at 2 uM by SPR analysis
RNA [8] = test: Binding affinity to (CAG)10 repeat RNA (unknown origin) assessed as dissociation rate constant by SPR analysis
RNA [9] = test: Binding affinity to (CAG)10 repeat RNA (unknown origin) by SPR analysis; details: dose 1.0 µM
RNA [10] = test: Binding affinity to 3' (CAG)2 repeat RNA overhang (unknown origin) at 0.063 to 2 uM by SPR analysis; details: dose 0.063-2 µM
RNA [11] = test: Binding affinity to 5' (CAG)2 repeat RNA overhang (unknown origin) at 2 uM by SPR analysis
RNA [12] = test: Binding affinity to (CAG)10 repeat RNA internal loop (unknown origin) by SPR analysis
RNA [13] = test: Binding affinity to 5' (CAG) repeat RNA hairpin loop (unknown origin) at 2 uM by SPR analysis
RNA [14] = test: Binding affinity to (CAG)10 repeat RNA (unknown origin) at 20 uM by CSI-TOF MS analysis
RNA [15] = test: Binding affinity to (CAG)2 repeat RNA hairpin loop (unknown origin) by SPR analysis
RNA [16] = test: Binding affinity to 5' (CAG)3 repeat RNA overhang (unknown origin) by SPR analysis; details: dose 0.063-2 µM
RNA [17] = test: Binding affinity to (CAG)10 repeat RNA (unknown origin) assessed as dissociation constant by SPR analysis
RNA [18] = test: Binding affinity to CAG repeat RNA overhang (unknown origin)
RNA [19] = test: Binding affinity to (CAG)10 repeat RNA (unknown origin) at 2 uM by SPR analysis
RNA [20] = test: Binding affinity to CAG repeat RNA terminal (unknown origin)

Activity (RNA [1])	Activity (RNA [2])	Activity (RNA [3])	Activity (RNA [4])	Ka (RNA [5])	Activity (RNA [6])	Activity (RNA [7])	Kdiss (RNA [8])	Activity (RNA [9])	Activity (RNA [10])	Activity (RNA [11])	Activity (RNA [12])	Activity (RNA [13])	Activity (RNA [14])	Activity (RNA [15])	Activity (RNA [16])	pKd (RNA [17])	Activity (RNA [18])	Activity (RNA [19])	Activity (RNA [20])	SMILES
Dose-Dependent Effect	Active	Dose-Dependent Effect	Active	0.47 10^4/M/s	inactive	Active	2.9 10^-2/s	Dose-Dependent Effect	Active	inactive	Active	Active	Active	inactive	Dose-Dependent Effect	5.21				Cc1ccc2ccc(NC(=O)CCN(CCCCCN(CCC(=O)NCc3ccc4ccc(=O)[nH]c4n3)CCC(=O)Nc3ccc4ccc(C)nc4n3)CCC(=O)NCc3ccc4ccc(=O)[nH]c4n3)nc2n1
																	inactive	inactive	inactive	Cc1ccc2ccc(NC(=O)CCNCCC(=O)NCc3ccc4ccc(=O)[nH]c4n3)nc2n1
